Reference: patent publication US20150175599A1, “FAAH Inhibitors” (Ironwood Pharmaceuticals, Inc., priority 2010, published 2015)

Experiments:
hERG channel = molecular target: T1, hERG channel (Homo sapiens, UniProt Q12809); test: hERG channel inhibition, automated patch clamp (IonWorks HT, hERG-CHO); type: cell-based; conditions: CHO cells expressing hERG, 600 s incubation; for inhibition at 600 s, 1 µM: 1 μM compound, read-out: hERG Channel Inhibition % (at 1 μM), vehicle-subtracted values; for inhibition at 600 s, 10 µM: 10 μM compound, read-out: hERG Channel Inhibition % (at 10 μM), vehicle-subtracted values
T1 construct: expressed in transfected cells; host or cells: CHO (hERG-CHO), under Geneticin selection
T1 sequence (Q12809 whole entry): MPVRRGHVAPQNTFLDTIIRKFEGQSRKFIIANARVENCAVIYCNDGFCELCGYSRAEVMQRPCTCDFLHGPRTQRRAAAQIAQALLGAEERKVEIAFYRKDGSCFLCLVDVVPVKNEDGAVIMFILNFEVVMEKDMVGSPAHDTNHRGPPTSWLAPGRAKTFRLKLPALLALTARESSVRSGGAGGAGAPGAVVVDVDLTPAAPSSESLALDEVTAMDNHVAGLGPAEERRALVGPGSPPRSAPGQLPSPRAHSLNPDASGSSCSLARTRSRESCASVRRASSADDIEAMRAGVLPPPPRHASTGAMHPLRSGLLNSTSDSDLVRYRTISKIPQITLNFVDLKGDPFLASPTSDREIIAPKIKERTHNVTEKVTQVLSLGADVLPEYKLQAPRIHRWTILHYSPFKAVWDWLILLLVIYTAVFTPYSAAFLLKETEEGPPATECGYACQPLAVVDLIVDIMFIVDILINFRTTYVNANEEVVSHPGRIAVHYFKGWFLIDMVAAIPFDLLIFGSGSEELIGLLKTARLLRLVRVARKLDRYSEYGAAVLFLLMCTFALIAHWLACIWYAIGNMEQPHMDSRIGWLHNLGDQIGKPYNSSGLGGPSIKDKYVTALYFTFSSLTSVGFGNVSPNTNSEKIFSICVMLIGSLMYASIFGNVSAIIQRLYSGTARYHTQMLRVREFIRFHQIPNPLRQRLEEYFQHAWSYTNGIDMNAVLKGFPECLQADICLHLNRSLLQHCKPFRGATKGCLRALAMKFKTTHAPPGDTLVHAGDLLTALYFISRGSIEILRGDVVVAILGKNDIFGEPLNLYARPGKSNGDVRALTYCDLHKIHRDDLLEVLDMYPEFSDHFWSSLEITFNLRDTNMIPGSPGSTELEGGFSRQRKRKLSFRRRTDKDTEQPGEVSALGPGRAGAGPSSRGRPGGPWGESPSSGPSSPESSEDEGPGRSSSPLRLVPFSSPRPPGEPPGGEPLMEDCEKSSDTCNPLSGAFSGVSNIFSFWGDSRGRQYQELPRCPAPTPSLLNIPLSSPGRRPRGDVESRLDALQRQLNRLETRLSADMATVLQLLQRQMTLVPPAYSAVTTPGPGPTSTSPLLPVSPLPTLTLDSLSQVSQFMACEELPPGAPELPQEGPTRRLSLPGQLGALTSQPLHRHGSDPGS
Procedure: Human ether-a-gogo-related (hERG) ion channel encodes the inward rectifying voltage gated potassium channel in the heart and has a major role during the repolarization of the cardiac action potential. It is well established that blockade of this ion channel can lead to potentially lethal arrhythmias. hERG pre-clinical safety data is often used by regulatory agencies in elucidate the toxicity profile of certain compositions. The disclosed compounds of Table 1 were tested for their ability to inhibit hERG ion channels.
Media components include F12 Nutrient Mixture (Ham) with GlutaMAX™ (Invitrogen, Cat#31765), Fetal Bovine Serum, Certified (Invitrogen, Cat#16000-044—not heat activated), and Geneticin® Selective Antibiotic (Invitrogen, Cat#10131-027).
One vial of frozen cells, at 1.62×10^6 cells are thawed into a T150 flask (BD Falcon 355001) with 40 mL of pre-warmed complete media. Cells are cultured at 37° C., 5% CO2 for four hours prior to gently changing media. 99% of cells appear attached at this time point.
The flask is media changed at 24 hours post-thaw, the cells are imaged, media changed, and returned to the incubator. At this point, the cells appear healthy and about 25% confluent in the flask. Cells are typically passed 24-48 hours after thaw according to the following intervals and densities below. Cells are incubated at 30° C. for 48 hours prior to assay.
Using an automated patch clamp apparatus (IonWorks^HT), a three pulse protocol was applied by stepping from a holding potential of −80 mV to […] for 2 s, to activate hERG channels. The membrane voltage was then stepped back to −50 mV for 2 s to evoke a tail current prior to returning to the holding potential for 1 s. This sequence was repeated a further two times. This voltage protocol was applied prior to drug (Pre compound) and after 600 s in the presence of drug (Post compound).
The amplitude of the hERG tail current was calculated by measuring the difference between the maximum current on stepping to −50 mV of the third pulse (i.e. peak of the outward hERG tail current) and the current measured immediately prior to activation of any hERG current. This parameter was assessed before (pre tail current amplitude) and after 600 s incubation (post tail current amplitude) in drug. In order to assess the amount of block produced by test compounds, the data was first filtered using the IonWorks™ software to exclude any cells where the seal resistance was less than 50 MOhm. The remaining data was then exported to an excel compatible data file and only currents with tail currents greater than 250 pA were analyzed. The post/pre tail current amplitude ratio for the third pulse was calculated for each drug and control, and presented as percent inhibition.

[1] = Pharmacokinetic study, plasma level 2 hours after oral dosing in rats; type: in vivo
Procedure: Pharmacokinetic studies were conducted to determine absorption and distribution profiles of the disclosed compounds which were orally administered to rats.
Compounds were formulated in a 1% DMA/99% Vitamin E TPGS vehicle. Prepared compounds were dosed via oral gavage (PO). Following the appropriate pretreatment time of 2 hours, rats were anesthetized with isoflurane gas. Blood was collected into tubes containing EDTA via retro-orbital eye bleed. Whole blood was spun in a micro-centrifuge at approximately 13,000 rpm for 5 minutes at room temperature. Separated plasma was subsequently aliquoted into eppendorf tubes. Samples were stored at −80° C. until prepped for analysis.
Plasma samples were thawed and the required amount of plasma for standards, blanks and dilutions were made. The dilutions were prepared before plating. Preparation of crash solution included cold acetonitrile+0.1% formic acid and 25 ng/mL of a FAAH inhibitor used as internal standard. solvent standards of the FAAH inhibitor being studied were preparation at 10, 30, 100, 300, 1000, 3000, 10000, 30000, 100000, and 300000 ng/mL in DMSO. Then a plasma standard curve was generated from the solvent standards (final concentrations of standards in plasma were: 0.1, 0.3, 1, 3, 10, 30, 100, 300, 1000, 3000 ng/mL). 50 μL of each plasma sample/dilution, standard, or blank was transferred into 96-well plates. To each well, 200 μL of cold crash solution was added. The plate was covered and gently vortexed. The plate was centrifuged at 3500 rpm, 4° C. for 10 min. 200 μL of each supernatant was transferred into new plates. The plates were dried under nitrogen in a TurboVap at 55° C. The sample in each well was re-suspended with 100 μL of 30% acetonitrile, covered and vortexed gently. The well solutions were analyzed by the LC/MS/MS conditions and specifications below.
HPLC column was a Clipeus C8, 2.1×30 mm, 5 μm, with Basic 8 guard column using 20 μL injections. Mobile phase used was mobile phase A: 0.1% Formic Acid in water and mobile phase B: 0.1% Formic Acid in 85:10:5 ACN:IPA:H2O. The flow rate for the run was 0.5 mL/min and the gradient for the 4 minute total run time was: 0.0 minutes

## COc1ccc2c(C(=O)C(=O)Nc3ccnc(OC)c3)c(C)n(Cc3ccc(Cl)cc3)c2c1 [Compound 48, 2-(1-(4-chlorobenzyl)-6-methoxy-2-methyl-1H-indol-3-yl)-N-(2-methoxypyridin-4-yl)-2-oxoacetamide]
hERG channel
  inhibition at 600 s, 1 µM: < 25%
  inhibition at 600 s, 10 µM: < 25%
[1]
  2 hr plasma level-ng/mL (rat, 10 mg/kg PO, 2 hr): C (C = between 100 nM and 1000 nM)

## COc1ccc(Cn2c(C)c(C(=O)C(=O)Nc3ccnc(OC)c3)c3cc(OC)c(C)cc32)nc1 [Compound 96, 2-(5-methoxy-1-((5-methoxypyridin-2-yl)methyl)-2,6-dimethyl-1H-indol-3-yl)-N-(2-methoxypyridin-4-yl)-2-oxoacetamide]
hERG channel
  inhibition at 600 s, 1 µM: < 25%
  inhibition at 600 s, 10 µM: < 25%
[1]
  2 hr plasma level-ng/mL (rat, 10 mg/kg PO, 2 hr): C (C = between 100 nM and 1000 nM)

## COc1cnc2c(c1)c(C(=O)C(=O)Nc1ccnc(OC)c1)c(C)n2Cc1ccc(Cl)cc1Cl [Compound 42, 2-(1-(2,4-dichlorobenzyl)-5-methoxy-2-methyl-1H-pyrrolo[2,3-b]pyridin-3-yl)-N-(2-methoxypyridin-4-yl)-2-oxoacetamide]
hERG channel
  inhibition at 600 s, 1 µM: < 25%
  inhibition at 600 s, 10 µM: 50 to 75%
[1]
  2 hr plasma level-ng/mL (rat, 10 mg/kg PO, 2 hr): C (C = between 100 nM and 1000 nM)

## COc1ccc2c(c1)c(C(=O)C(=O)Nc1cc(Cl)nc(OC)c1)c(C)n2Cc1ccc(Cl)cc1 [Compound 47, N-(2-chloro-6-methoxypyridin-4-yl)-2-(1-(4-chlorobenzyl)-5-methoxy-2-methyl-1H-indol-3-yl)-2-oxoacetamide]
hERG channel
  inhibition at 600 s, 1 µM: < 25%
  inhibition at 600 s, 10 µM: < 25%
[1]
  2 hr plasma level-ng/mL (rat, 10 mg/kg PO, 2 hr): C (C = between 100 nM and 1000 nM)

## COc1cnc2c(c1)c(C(=O)C(=O)Nc1ccnc(OC)c1)c(C)n2Cc1ccc(Cl)cc1 [Compound 38, 2-(1-(4-chlorobenzyl)-5-methoxy-2-methyl-1H-pyrrolo[2,3-b]pyridin-3-yl)-N-(2-methoxypyridin-4-yl)-2-oxoacetamide]
hERG channel
  inhibition at 600 s, 1 µM: < 25%
  inhibition at 600 s, 10 µM: 25 to 50%
[1]
  2 hr plasma level-ng/mL (rat, 10 mg/kg PO, 2 hr): C (C = between 100 nM and 1000 nM)

## COc1ccc2c(c1)c(C(=O)C(=O)Nc1cc(OC)ncc1F)c(C)n2Cc1ccc(Cl)cc1 [Compound 54, 2-(1-(4-chlorobenzyl)-5-methoxy-2-methyl-1H-indol-3-yl)-N-(5-fluoro-2-methoxypyridin-4-yl)-2-oxoacetamide]
hERG channel
  inhibition at 600 s, 1 µM: < 25%
  inhibition at 600 s, 10 µM: < 25%
[1]
  2 hr plasma level-ng/mL (rat, 10 mg/kg PO, 2 hr): A (A = Less than 10 nM)

## COc1cnc2c(c1)c(C(=O)C(=O)Nc1ccnc(OC)c1)c(C)n2Cc1ccc(Cl)cn1 [Compound 41, 2-(1-((5-chloropyridin-2-yl)methyl)-5-methoxy-2-methyl-1H-pyrrolo[2,3-b]pyridin-3-yl)-N-(2-methoxypyridin-4-yl)-2-oxoacetamide]
hERG channel
  inhibition at 600 s, 1 µM: < 25%
  inhibition at 600 s, 10 µM: 25 to 50%
[1]
  2 hr plasma level-ng/mL (rat, 10 mg/kg PO, 2 hr): D (D = greater than 1000 nM)

## COc1cc(NC(=O)C(=O)c2c(C)n(Cc3ccc(Cl)cc3)c3ccc(O)cc23)ccn1 [Compound 2, 2-(1-(4-chlorobenzyl)-5-hydroxy-2-methyl-1H-indol-3-yl)-N-(2-methoxypyridin-4-yl)-2-oxoacetamide]
hERG channel
  inhibition at 600 s, 1 µM: < 25%
  inhibition at 600 s, 10 µM: < 25%
[1]
  2 hr plasma level-ng/mL (rat, 10 mg/kg PO, 2 hr): A (A = Less than 10 nM)

## COCc1ccc2c(c1)c(C(=O)C(=O)Nc1ccnc(OC)c1)c(C)n2Cc1ccc(Cl)cc1 [Compound 11, 2-(1-(4-chlorobenzyl)-5-(methoxymethyl)-2-methyl-1H-indol-3-yl)-N-(2-methoxypyridin-4-yl)-2-oxoacetamide]
hERG channel
  inhibition at 600 s, 1 µM: < 25%
  inhibition at 600 s, 10 µM: 25 to 50%
[1]
  2 hr plasma level-ng/mL (rat, 10 mg/kg PO, 2 hr): C (C = between 100 nM and 1000 nM)

## COc1ccc2c(c1)c(C(=O)C(=O)Nc1ccnc(OC)c1)c(C)n2Cc1ccccn1 [Compound 77, 2-(5-methoxy-2-methyl-1-(pyridin-2-ylmethyl)-1H-indol-3-yl)-N-(2-methoxypyridin-4-yl)-2-oxoacetamide]
hERG channel
  inhibition at 600 s, 1 µM: < 25%
  inhibition at 600 s, 10 µM: < 25%
[1]
  2 hr plasma level-ng/mL (rat, 10 mg/kg PO, 2 hr): C (C = between 100 nM and 1000 nM)
